Results: patent US11976074B1, “Crystalline salts of Linsitinib” (Sling Therapeutics, Inc., priority 2023, dated 2024)

Key:
Assay type in all cases: physicochemical
[1] = Physical stability on capped storage at room temperature (PXRD reanalysis)
Method: A theoretical hemi-hydrate for a mono-edisylate salt of linsitinib would contain 1.4% water. Additional endotherms are observed at 252 and 278° C. that are likely due to melt/decomposition based on the corresponding weight loss in the TGA beginning around 244° C.
HCl 1 was generated via evaporation of a solution containing 1:1 linsitinib:acid in tetrahydrofuran (THF)/water at 70° C. […] The weight loss is likely due to water and potentially evolution of hydrochloric acid.
The sample was initially analyzed by PXRD and stored at ambient temperature in a capped vial. (FIG. 85).

[2] = pH-solubility of linsitinib free base and selected salts (pH 1.5 to 6.5, overnight equilibration, HPLC); settings: for solubility: aqueous solution, thermodynamic from solid, overnight equilibration, read-out: Solubility; for Final pH: after overnight equilibration
Method: The pH-solubility of selected salts (Phosphate 1, L-Malate 1, Esylate 1, and Esylate 2) was evaluated and compared with linsitinib free base. The solubility analysis was conducted in a manner consistent with a previous study that was performed with linsitinib free base. Aqueous solutions were prepared between pH 1.5 and pH 6.5 in 0.5 pH unit increments via titration of the solution using NaOH and HCl. For each salt or the free base, an attempt was made to reach saturation in each of the solutions by adding sufficient material to the solution such that excess solids remained. If saturation was achieved, the pH of the solution was measured and adjusted to the target pH and additional material was added if needed. The samples were then equilibrated overnight. The final pH of the solution was measured, the solids were filtered and selected samples were analyzed by PXRD. The concentration of linsitinib in the filtrate was quantitated by HPLC (diluted as needed). In some cases, significant drift (+1 pH unit or more) of the final pH from the target pH was observed after the overnight equilibration.
The pH-solubility data is shown graphically in FIG. 89. […] Indeed, it should be noted that in the majority of the low pH systems, higher initial dissolution/solubility was observed followed by precipitation of the material from solution upon longer equilibration.

[3] = Equilibrium solubility in bio-relevant media (FaSSGF pH 1.6, FaSSIF pH 6.5); settings: for solubility: thermodynamic from solid, read-out: Solubility
Source text: In addition to the pH-solubility data, a comparison of the equilibrium solubility of linsitinib free base and salts in two bio-relevant media (Table 28), fasted state simulated gastric fluid (FaSSGF pH 1.6) and intestinal fluid (FaSSIF pH 6.5) was completed. […] A saturated solution of Esylate 1 was not achieved during this study and therefore the equilibrium solubility could be higher than determined. It should be noted that variability of almost a full pH unit was noted among the samples making a direct comparison more challenging.

## C[C@]1(O)C[C@@H](c2nc(-c3ccc4ccc(-c5ccccc5)nc4c3)c3c(N)nccn32)C1 [Edisylate 1]
[1]; 20 days, capped
  PXRD result after storage at RT: no significant changes
[1]; 20 days, capped, listed as 2-4
  PXRD result after storage at RT: Edisylate 1

## C[C@]1(O)C[C@@H](c2nc(-c3ccc4ccc(-c5ccccc5)nc4c3)c3c(N)nccn32)C1 [Form B, reference compound]
[1]; 23 days
  PXRD result after storage at RT: Form B (LC)

## C[C@]1(O)C[C@@H](c2nc(-c3ccc4ccc(-c5ccccc5)nc4c3)c3c(N)nccn32)C1 [Form I]
[1]; 20 days, capped, listed as 2-13
  PXRD result after storage at RT: Form I

## C[C@]1(O)C[C@@H](c2nc(-c3ccc4ccc(-c5ccccc5)nc4c3)c3c(N)nccn32)C1 [Form J]
[1]; 17 days, capped
  PXRD result after storage at RT: Form I
[1]; 20 days, capped
  PXRD result after storage at RT: converted to Form I

## C[C@]1(O)C[C@@H](c2nc(-c3ccc4ccc(-c5ccccc5)nc4c3)c3c(N)nccn32)C1.Cl [HCl 1]
[1]; 17 days, capped
  PXRD result after storage at RT: no significant changes
[1]; 17 days, capped, listed as 2-11
  PXRD result after storage at RT: HCl 1

## C[C@]1(O)C[C@@H](c2nc(-c3ccc4ccc(-c5ccccc5)nc4c3)c3c(N)nccn32)C1.O=P(O)(O)O [Phosphate 1]
[2]; pH 4, aqueous buffer, target pH 4.0, * = clear solution, not equilibrium value
  solubility: 5870 µg/mL
[2]; pH 4.5, aqueous buffer, target pH 4.5, * = clear solution, not equilibrium value
  solubility: 3040 µg/mL
[2]; pH 5, aqueous buffer, target pH 5.0
  solubility: 45.8 µg/mL
[2]; pH 5.5, aqueous buffer, target pH 5.5
  solubility: 35 µg/mL
[2]; pH 6, aqueous buffer, target pH 6.0
  solubility: 4.6 µg/mL
[2]; pH 6.5, aqueous buffer, target pH 6.5
  solubility: 1 µg/mL
[2]; pH adjusted with NaOH and HCl, pH 1.5, aqueous buffer, target pH 1.5, * = clear solution, not equilibrium value
  solubility: 38600 µg/mL
[2]; pH adjusted with NaOH and HCl, pH 2, aqueous buffer, target pH 2.0, * = clear solution, not equilibrium value
  solubility: 25900 µg/mL
[2]; pH adjusted with NaOH and HCl, pH 2.5, aqueous buffer, target pH 2.5, * = clear solution, not equilibrium value
  solubility: 18400 µg/mL
[2]; pH adjusted with NaOH and HCl, pH 3, aqueous buffer, target pH 3.0, * = clear solution, not equilibrium value
  solubility: 14900 µg/mL
[2]; pH adjusted with NaOH and HCl, pH 3.5, aqueous buffer, target pH 3.5, * = clear solution, not equilibrium value
  solubility: 7500 µg/mL
[2]; target pH 1.5
  Final pH: 1.39
[2]; target pH 2.0
  Final pH: 1.72
[2]; target pH 2.5
  Final pH: 2.46
[2]; target pH 3.0
  Final pH: 2.58
[2]; target pH 3.5
  Final pH: 2.89
[2]; target pH 4.0
  Final pH: 3.69
[2]; target pH 4.5
  Final pH: 4.01
[2]; target pH 5.0
  Final pH: 5.49
[2]; target pH 5.5
  Final pH: 5.73
[2]; target pH 6.0
  Final pH: 5.65
[2]; target pH 6.5
  Final pH: 6.21
[3]; FaSSGF (pH 1.6)
  Final pH: 2.74
[3]; FaSSGF (pH 1.6), in words
  Solubility compared with the free base: largely comparable
[3]; FaSSIF (pH 6.5)
  Final pH: 5.63
[3]; fasted state simulated gastric fluid (FaSSGF), pH 1.6, fassgf or other biorelevant, FaSSGF (pH 1.6)
  solubility: 9510 µg/mL
[3]; fasted state simulated intestinal fluid (FaSSIF), pH 6.5, fassif, FaSSIF (pH 6.5)
  solubility: 9 µg/mL
